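In this assay, cells in 96-well plates receive the compound at five concentrations for 48 hours. Endpoints are linearly interpolated between the surrounding concentrations. TGI denotes the concentration required for complete inhibition of growth.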 Where a SMILES comes first, the peptide text is derived from it. [ ]: non-standard residue; d: D form. The star is where a group is joined. Phe(4-NO2) = N[CH](Cc1ccc([N+](=O)[O-])cc1)C(=O)O; Boc = CC(C)(C)OC(=O)*
Assays:
Test in all cases: DTP human tumour cell line panel, 48 h
SR leukemia = test system: SR leukemia
MCF7 breast = test system: MCF7 breast
KM12 colon = test system: KM12 colon
A498 renal = test system: A498 renal
SNB-19 CNS = test system: SNB-19 CNS
OVCAR-4 ovarian = test system: OVCAR-4 ovarian
SK-MEL-5 melanoma = test system: SK-MEL-5 melanoma
T-47D breast = test system: T-47D breast
RPMI-8226 leukemia = test system: RPMI-8226 leukemia
UO-31 renal = test system: UO-31 renal
SF-295 CNS = test system: SF-295 CNS
SK-MEL-28 melanoma = test system: SK-MEL-28 melanoma
EKVX NSCLC = test system: EKVX NSCLC
OVCAR-8 ovarian = test system: OVCAR-8 ovarian
MALME-3M melanoma = test system: MALME-3M melanoma
SF-268 CNS = test system: SF-268 CNS
UACC-62 melanoma = test system: UACC-62 melanoma
MOLT-4 leukemia = test system: MOLT-4 leukemia
LOX IMVI melanoma = test system: LOX IMVI melanoma

Compound	TGI (SR leukemia)	TGI (MCF7 breast)	TGI (KM12 colon)	TGI (A498 renal)	TGI (SNB-19 CNS)	TGI (OVCAR-4 ovarian)	TGI (SK-MEL-5 melanoma)	TGI (T-47D breast)	TGI (RPMI-8226 leukemia)	TGI (UO-31 renal)	TGI (SF-295 CNS)	TGI (SK-MEL-28 melanoma)	TGI (EKVX NSCLC)	TGI (OVCAR-8 ovarian)	TGI (MALME-3M melanoma)	TGI (SF-268 CNS)	TGI (UACC-62 melanoma)	TGI (MOLT-4 leukemia)	TGI (LOX IMVI melanoma)
N#CCC1(c2ccc(Cl)cc2)NC(=O)c2ccccc21 (stereo not drawn)	> 100 µM	> 100 µM	> 100 µM	> 100 µM	> 100 µM	> 100 µM	> 100 µM	> 100 µM	> 100 µM	> 100 µM	> 100 µM	> 100 µM	> 100 µM	> 100 µM	> 100 µM	> 100 µM	> 100 µM	> 100 µM	> 100 µM
COc1ccc(C(=C2C(=O)N(c3ccccc3)C(=O)C2=C(C)C)c2ccc(OC)cc2)cc1	> 100 µM	> 45.4 µM	> 54.4 µM	16 µM	> 56.2 µM	> 29.3 µM	> 51.4 µM	> 100 µM	> 43.7 µM	> 31 µM	> 49 µM	20.7 µM	> 24.4 µM	> 32.1 µM	> 100 µM	> 34.3 µM	> 34.2 µM	> 39.7 µM	> 31.3 µM
O=C(N/N=C/c1ccc(Cl)cc1)c1ccccc1Nc1ccccc1C(=O)N/N=C/c1ccc(Cl)cc1	> 100 µM	> 100 µM	> 100 µM	> 100 µM	> 100 µM	> 100 µM	> 100 µM	> 100 µM	> 100 µM	> 100 µM	> 100 µM	> 100 µM	> 100 µM	> 100 µM	> 100 µM	> 100 µM	> 100 µM	> 100 µM	> 100 µM
C=C(CO)[C@H]1Oc2ccc(C(C)=O)cc2[C@@H]1O	> 100 µM	> 100 µM	> 100 µM	> 100 µM	> 100 µM	> 100 µM	> 100 µM	> 100 µM	> 100 µM	> 100 µM	> 100 µM	> 100 µM	> 100 µM	> 100 µM	> 100 µM	> 100 µM	> 100 µM	> 100 µM	> 100 µM
CCCCCC(=Nc1n[nH]nc1C(N)=O)OCC	> 100 µM	> 100 µM	> 100 µM	> 100 µM	> 100 µM	> 100 µM	> 100 µM	> 100 µM	> 100 µM	> 100 µM	> 100 µM	> 100 µM	> 100 µM	> 100 µM	> 100 µM	> 100 µM	> 100 µM	> 100 µM	> 100 µM
NS(=O)(=O)c1nnc(NS(=O)(=O)c2ccc(Cl)cc2)s1	> 100 µM	> 100 µM	> 100 µM	> 100 µM	> 100 µM	> 100 µM	> 100 µM	> 100 µM	> 100 µM	> 100 µM	> 100 µM	> 100 µM	> 100 µM	> 100 µM	> 100 µM	> 100 µM	> 100 µM	> 100 µM	> 100 µM
COC(=O)CCC(NC(=O)OC(C)(C)C)C(=O)NC(Cc1ccc([N+](=O)[O-])cc1)C(=O)NC(CCC(=O)OC)C(=O)OC (stereo not drawn) (Boc-Glu(OMe)-[Phe(4-NO2)]-Glu(OMe)-OMe; configuration not given here)	51.6 µM	> 100 µM	> 100 µM	> 100 µM	> 100 µM	> 100 µM	> 100 µM	> 100 µM	67.3 µM	> 100 µM	> 100 µM	> 100 µM	> 100 µM	> 100 µM	> 100 µM	> 100 µM	> 100 µM	49.9 µM	80.2 µM
C#CC(O)/C=C/C(O)CCCC(O)CC#CC(O)C#CC(O)CCCC(O)/C=C/CCCCCC(=O)CCCCCCCCCCCCCC(O)C(O)C#CC(=O)O (stereo not drawn)	26.1 µM	38.7 µM	> 50 µM	> 50 µM	> 50 µM	17.9 µM	> 50 µM	35 µM	> 50 µM	> 50 µM	> 50 µM	25 µM	> 50 µM	> 50 µM	> 50 µM	> 50 µM	> 50 µM	26.6 µM	24.5 µM
Cc1cc2c(cc1C)C(=O)/C(=C/c1ccccc1C(=O)O)C2	62.7 µM	> 100 µM	> 100 µM	88.6 µM	> 100 µM	> 100 µM	> 100 µM	> 100 µM	75.2 µM	> 100 µM	> 100 µM	> 100 µM	> 100 µM	> 100 µM	> 100 µM	> 100 µM	> 100 µM	> 100 µM	83.5 µM
O=c1c2ccccc2nc2sc(/N=C/C=C/c3ccccc3)nn12	> 100 µM	> 100 µM	> 100 µM	> 100 µM	> 100 µM	> 100 µM	> 100 µM	> 100 µM	> 100 µM	> 100 µM	> 100 µM	> 100 µM	> 100 µM	> 100 µM	> 100 µM	> 100 µM	> 100 µM	> 100 µM	> 100 µM
CC(C)NC(=O)OCc1c(COC(=O)NC(C)C)c(-c2cc[n+](COC(=O)C(C)C)cc2)n2c1CCC2	> 63.3 µM	> 100 µM	> 100 µM	35.9 µM	> 100 µM	> 100 µM	> 100 µM	> 100 µM	> 100 µM	> 100 µM	> 100 µM	> 100 µM	> 100 µM	> 100 µM	> 100 µM	> 100 µM	> 100 µM	99.2 µM	> 100 µM
COC(=O)N/N=C(/c1nc2ccc([N+](=O)[O-])cc2[nH]c1=O)C(O)c1ccc(OC)c(OC)c1 (stereo not drawn)	39 µM	> 100 µM	> 100 µM	> 100 µM	> 100 µM	> 100 µM	> 78.7 µM	> 100 µM	> 74.5 µM	> 100 µM	> 100 µM	> 100 µM	> 100 µM	> 100 µM	> 100 µM	> 100 µM	> 100 µM	> 100 µM	> 61.7 µM

— PubChem BioAssay (NCI)
